In patent US11046686B2, “Thiadiazole IRAK4 compounds” (Gilead Sciences, Inc., priority 2018, dated 2021):
Where two headings read alike, the source gives them in different places.

How the values were obtained:
IRAK4 enzyme = IRAK4 enzyme (Homo sapiens (Human), UniProt Q9NWZ3); assay: IRAK4 Biochemical Assay (TR-FRET, STK1 KinEASE)
In short: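 IRAK4 (0.75 nM) preincubated 15 min with compound and […] STK1 peptide, then started with 500 μM ATP in HEPES pH 7.0 buffer with MgCl2, DTT, BSA, NP-40; 120 min at room temperature.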

TNFα = assay: IRAK4 Monocyte TNFα Cell Based Assay; design: species or system human; conditions: Homo sapiens, Monocyte, human monocytes
In short: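 Human monocytes (5,000/well) pretreated with compound 1 h at 37 °C (0.1% DMSO final), then stimulated with 50 pg/ml LPS for 4 h. Secreted TNFα measured by TR-FRET two-antibody detection after overnight incubation at room temperature; % control relative to unstimulated and LPS-stimulated wells.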

[1] = compounds 1-32, read-out: IC50 HTRF
[2] = LPS stimulated, compounds 1-32, read-out: EC50 TNF
[3] = second part of Table 2, compounds 33-343, unit inferred, read-out: EC50 MONO TNF HTRF

IRAK4 enzyme, sequence (Q9NWZ3 whole entry): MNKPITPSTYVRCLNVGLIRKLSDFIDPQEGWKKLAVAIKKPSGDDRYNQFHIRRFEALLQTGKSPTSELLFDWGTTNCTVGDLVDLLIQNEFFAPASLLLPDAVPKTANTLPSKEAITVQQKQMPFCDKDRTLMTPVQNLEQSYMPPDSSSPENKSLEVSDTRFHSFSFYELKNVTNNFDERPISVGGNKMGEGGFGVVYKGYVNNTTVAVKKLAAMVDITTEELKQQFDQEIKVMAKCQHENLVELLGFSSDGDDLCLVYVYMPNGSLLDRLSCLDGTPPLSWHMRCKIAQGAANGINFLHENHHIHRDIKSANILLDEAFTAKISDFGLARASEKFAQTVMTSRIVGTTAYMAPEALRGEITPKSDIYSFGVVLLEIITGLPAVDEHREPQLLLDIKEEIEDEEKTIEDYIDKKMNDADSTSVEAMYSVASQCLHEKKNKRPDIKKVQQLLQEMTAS

Question: How did the IC50 (IRAK4 enzyme; [1]) turn out when `CC(=O)NC1CCN(c2nnc(-c3cnc(-c4ccc5cc(C#N)cnn45)cc3NC(C)C)s2)CC1` [Example 6, N-(1-(5-(6-(3-cyanopyrrolo[1,2-b]pyridazin-7-yl)-4-(isopropylamino)pyridin-3-yl)-1,3,4-thiadiazol-2-yl)piperidin-4-yl)acetamide] was run?
Answer: < 1 nM

Question: And the EC50 (TNFα; [2])?
Answer: 19 nM

Question: What does the source list for `CC(C)Nc1cc(-c2ccc3cc(C#N)cnn23)ncc1-c1nnc(-c2ccc(N)cc2)s1` [Example 7, 7-(5-(5-(4-aminophenyl)-1,3,4-thiadiazol-2-yl)-4-(isopropylamino)pyridin-2-yl)pyrrolo[1,2-b]pyridazine-3-carbonitrile]?
Answer: IC50 (IRAK4 enzyme; [1]): 9 nM; EC50 (TNFα; [2]): > 10000 nM

Question: What does the source list for `CC(=O)N1CCN(C(=O)c2nnc(-c3cnc(-c4ccc5cc(C#N)cnn45)cc3NC(C)C)s2)CC1` [Example 10, 7-(5-(5-(4-acetylpiperazine-1-carbonyl)-1,3,4-thiadiazol-2-yl)-4-(isopropylamino)pyridin-2-yl)pyrrolo[1,2-b]pyridazine-3-carbonitrile]?
Answer: IC50 (IRAK4 enzyme; [1]): < 1 nM; EC50 (TNFα; [2]): 157 nM

Question: Which results are given for `CC(C)Nc1cc(-c2ccc3cc(C#N)cnn23)ncc1-c1nnc(C(=O)NCCCN2CCCCC2)s1` [Example 11, 5-(6-(3-cyanopyrrolo[1,2-b]pyridazin-7-yl)-4-(isopropylamino)pyridin-3-yl)-N-(3-(piperidin-1-yl)propyl)-1,3,4-thiadiazole-2-carboxamide]?
Answer: IC50 (IRAK4 enzyme; [1]): < 1 nM; EC50 (TNFα; [2]): 1170 nM

Question: With `CC(=O)N[C@H]1CCN(C(=O)c2nnc(-c3cnc(-c4ccc5cc(C#N)cnn45)cc3NC(C)C)s2)C1` [Example 12, (S)-N-(1-(5-(6-(3-cyanopyrrolo[1,2-b]pyridazin-7-yl)-4-(isopropylamino)pyridin-3-yl)-1,3,4-thiadiazole-2-carbonyl)pyrrolidin-3-yl)acetamide] as the molecule, how does the IC50 (IRAK4 enzyme; [1]) read?
Answer: < 1 nM

Question: And the EC50 (TNFα; [2])?
Answer: 9 nM

Question: For `CC(=O)N[C@@H]1CCN(C(=O)c2nnc(-c3cnc(-c4ccc5cc(C#N)cnn45)cc3NC(C)C)s2)C1` [Example 13, (R)-N-(1-(5-(6-(3-cyanopyrrolo[1,2-b]pyridazin-7-yl)-4-(isopropylamino)pyridin-3-yl)-1,3,4-thiadiazole-2-carbonyl)pyrrolidin-3-yl)acetamide], which IC50 (IRAK4 enzyme; [1]) is on record?
Answer: < 1 nM

Question: What about the EC50 (TNFα; [2]) of the same molecule?
Answer: 23 nM

Question: Which results are given for `CC(C)Nc1cc(-c2ccc3cc(C#N)cnn23)ncc1-c1nnc(C(=O)NC[C@@H](F)C(C)(C)O)s1` [Example 14, (R)-5-(6-(3-cyanopyrrolo[1,2-b]pyridazin-7-yl)-4-(isopropylamino)pyridin-3-yl)-N-(2-fluoro-3-hydroxy-3-methylbutyl)-1,3,4-thiadiazole-2-carboxamide]?
Answer: IC50 (IRAK4 enzyme; [1]): < 1 nM; EC50 (TNFα; [2]): 79 nM

Question: What does the source list for `CNC(=O)c1nnc(-c2cnc(-c3ccc4cc(C#N)cnn34)cc2NC(C)C)s1` [Example 15, 5-(6-(3-cyanopyrrolo[1,2-b]pyridazin-7-yl)-4-(isopropylamino)pyridin-3-yl)-N-methyl-1,3,4-thiadiazole-2-carboxamide]?
Answer: IC50 (IRAK4 enzyme; [1]): < 1 nM; EC50 (TNFα; [2]): 3390 nM

Question: How did the IC50 (IRAK4 enzyme; [1]) turn out when `CC(C)Nc1cc(-c2ccc3cc(C#N)cnn23)ncc1-c1nnc(C(=O)N2CC[C@H](O)C2)s1` [Example 16, (S)-7-(5-(5-(3-hydroxypyrrolidine-1-carbonyl)-1,3,4-thiadiazol-2-yl)-4-(isopropylamino)pyridin-2-yl)pyrrolo[1,2-b]pyridazine-3-carbonitrile] was run?
Answer: < 1 nM

Question: And the EC50 (TNFα; [2])?
Answer: 35 nM

Question: With `CC(C)Nc1cc(-c2ccc3cc(C#N)cnn23)ncc1-c1nnc(C(=O)N2CC[C@@H](O)C2)s1` [Example 17, (R)-7-(5-(5-(3-hydroxypyrrolidine-1-carbonyl)-1,3,4-thiadiazol-2-yl)-4-(isopropylamino)pyridin-2-yl)pyrrolo[1,2-b]pyridazine-3-carbonitrile] as the molecule, how does the IC50 (IRAK4 enzyme; [1]) read?
Answer: 1 nM

Question: What about the EC50 (TNFα; [2]) of the same molecule?
Answer: 55 nM

Question: What does the source list for `CC(C)Nc1cc(-c2ccc3cc(C#N)cnn23)ncc1-c1nnc(C(=O)N2CCOCC2)s1` [Example 18, 7-(4-(isopropylamino)-5-(5-(morpholine-4-carbonyl)-1,3,4-thiadiazol-2-yl)pyridin-2-yl)pyrrolo[1,2-b]pyridazine-3-carbonitrile]?
Answer: IC50 (IRAK4 enzyme; [1]): 1000 nM; EC50 (TNFα; [2]): > 10000 nM

Question: Which IC50 (IRAK4 enzyme; [1]) does the source give for `CC(=O)Nc1nnc(-c2cnc(-c3ccc4cc(C#N)cnn34)cc2NC(C)C)s1` [Example 19, N-(5-(6-(3-cyanopyrrolo[1,2-b]pyridazin-7-yl)-4-(isopropylamino)pyridin-3-yl)-1,3,4-thiadiazol-2-yl)acetamide] here?
Answer: 1 nM

Question: And the EC50 (TNFα; [2])?
Answer: 5870 nM

Question: `CC(=O)N[C@H]1CC[C@H](c2nnc(-c3cnc(-c4ccc5cc(C#N)cnn45)cc3NCC#N)s2)CC1` [Example 20, N-((1r,4r)-4-(5-(4-((cyanomethyl)amino)-6-(3-cyanopyrrolo[1,2-b]pyridazin-7-yl)pyridin-3-yl)-1,3,4-thiadiazol-2-yl)cyclohexyl)acetamide] was tested. Which IC50 (IRAK4 enzyme; [1]) did it give?
Answer: < 1 nM

Question: And the EC50 (TNFα; [2])?
Answer: 6 nM

Question: For `CC(=O)N[C@H]1CC[C@H](c2nnc(-c3cnc(-c4ccc5cc(C#N)cnn45)cc3NC3COC3)s2)CC1` [Example 21, N-((1r,4r)-4-(5-(6-(3-cyanopyrrolo[1,2-b]pyridazin-7-yl)-4-(oxetan-3-ylamino)pyridin-3-yl)-1,3,4-thiadiazol-2-yl)cyclohexyl)acetamide], which IC50 (IRAK4 enzyme; [1]) is on record?
Answer: < 1 nM

Question: What about the EC50 (TNFα; [2]) of the same molecule?
Answer: 10 nM

Question: How did the IC50 (IRAK4 enzyme; [1]) turn out when `CNc1cc(-c2ccc3cc(C#N)cnn23)ncc1-c1nnc([C@H]2CC[C@H](NC(C)=O)CC2)s1` [Example 22, N-((1r,4r)-4-(5-(6-(3-cyanopyrrolo[1,2-b]pyridazin-7-yl)-4-(methylamino)pyridin-3-yl)-1,3,4-thiadiazol-2-yl)cyclohexyl)acetamide] was run?
Answer: < 1 nM

Question: What about the EC50 (TNFα; [2]) of the same molecule?
Answer: 25 nM

Question: Which IC50 (IRAK4 enzyme; [1]) does the source give for `COC(=O)NC[C@H]1C[C@H](Nc2cc(-c3ccc4cc(C#N)cnn34)ncc2-c2nnc([C@H]3CC[C@H](NC(C)=O)CC3)s2)C1` [Example 23, methyl (((1R,3r)-3-((5-(5-((1r,4R)-4-acetamidocyclohexyl)-1,3,4-thiadiazol-2-yl)-2-(3-cyanopyrrolo[1,2-b]pyridazin-7-yl)pyridin-4-yl)amino)cyclobutyl)methyl)carbamate] here?
Answer: < 1 nM

Question: And the EC50 (TNFα; [2])?
Answer: 6 nM

Question: With `Cc1nnc(-c2cnc(-c3ccc4cc(C#N)cnn34)cc2NC(C)C)s1` [Example 25, 7-(4-(isopropylamino)-5-(5-methyl-1,3,4-thiadiazol-2-yl)pyridin-2-yl)pyrrolo[1,2-b]pyridazine-3-carbonitrile] as the molecule, how does the IC50 (IRAK4 enzyme; [1]) read?
Answer: < 1 nM

Question: And the EC50 (TNFα; [2])?
Answer: 1460 nM

Question: `CC(C)Nc1cc(-c2ccc3cc(C#N)cnn23)ncc1-c1nnc(CCN)s1` [Example 26, 7-(5-(5-(2-aminoethyl)-1,3,4-thiadiazol-2-yl)-4-(isopropylamino)pyridin-2-yl)pyrrolo[1,2-b]pyridazine-3-carbonitrile] was tested. Which IC50 (IRAK4 enzyme; [1]) did it give?
Answer: 1 nM

Question: And the EC50 (TNFα; [2])?
Answer: 305 nM

Question: How did the IC50 (IRAK4 enzyme; [1]) turn out when `CC(C)Nc1cc(-c2ccc3cc(C#N)cnn23)ncc1-c1nnc(NC[C@@H](F)C(C)(C)O)s1` [Example 27, (R)-7-(5-(5-((2-fluoro-3-hydroxy-3-methylbutyl)amino)-1,3,4-thiadiazol-2-yl)-4-(isopropylamino)pyridin-2-yl)pyrrolo[1,2-b]pyridazine-3-carbonitrile] was run?
Answer: 1 nM

Question: And the EC50 (TNFα; [2])?
Answer: 67 nM

Question: What does the source list for `CC(C)Nc1cc(-c2ccc3cc(C#N)cnn23)ncc1-c1nnc(-n2cccc2)s1` [Example 28, 7-(5-(5-(1H-pyrrol-1-yl)-1,3,4-thiadiazol-2-yl)-4-(isopropylamino)pyridin-2-yl)pyrrolo[1,2-b]pyridazine-3-carbonitrile]?
Answer: IC50 (IRAK4 enzyme; [1]): 1.7 nM; EC50 (TNFα; [2]): 6340 nM

Question: `CC(C)Nc1cc(-c2ccc3cc(C#N)cnn23)ncc1-c1nncs1` [Example 30, 7-(4-(isopropylamino)-5-(1,3,4-thiadiazol-2-yl)pyridin-2-yl)pyrrolo[1,2-b]pyridazine-3-carbonitrile] was tested. Which IC50 (IRAK4 enzyme; [1]) did it give?
Answer: 1 nM

Question: And the EC50 (TNFα; [2])?
Answer: 78 nM

Question: Which IC50 (IRAK4 enzyme; [1]) does the source give for `CC(C)Nc1cc(-c2ccc3cc(C#N)cnn23)ncc1-c1nnc(CCC(C)(C)O)s1` [Example 31, 7-(5-(5-(3-hydroxy-3-methylbutyl)-1,3,4-thiadiazol-2-yl)-4-(isopropylamino)pyridin-2-yl)pyrrolo[1,2-b]pyridazine-3-carbonitrile] here?
Answer: < 1 nM

Question: What about the EC50 (TNFα; [2]) of the same molecule?
Answer: 5 nM

Question: For `CC(=O)NC1CN(c2nnc(-c3cnc(-c4ccc5cc(C#N)cnn45)cc3NC(C)C)s2)C1` [Example 33, N-(1-(5-(6-(3-cyanopyrrolo[1,2-b]pyridazin-7-yl)-4-(isopropylamino)pyridin-3-yl)-1,3,4-thiadiazol-2-yl)azetidin-3-yl)acetamide], which IC50 (IRAK4 enzyme) is on record?
Answer: 0.49 nM

Question: And the EC50 (TNFα; [3])?
Answer: 3970 nM

Question: `CC(C)Nc1cc(-c2ccc3cc(C#N)cnn23)ncc1-c1nnc(N2CCN3CCOC[C@@H]3C2)s1` [Example 35, (S)-7-(5-(5-(hexahydropyrazino[2,1-c][1,4]oxazin-8(1H)-yl)-1,3,4-thiadiazol-2-yl)-4-(isopropylamino)pyridin-2-yl)pyrrolo[1,2-b]pyridazine-3-carbonitrile] was tested. Which IC50 (IRAK4 enzyme) did it give?
Answer: 0.87 nM

Question: What about the EC50 (TNFα; [3]) of the same molecule?
Answer: 78.2 nM

Question: Which results are given for `CC(C)Nc1cc(-c2ccc3cc(C#N)cnn23)ncc1-c1nnc(N2CCN3CCOC[C@H]3C2)s1` [Example 36, (R)-7-(5-(5-(hexahydropyrazino[2,1-c][1,4]oxazin-8(1H)-yl)-1,3,4-thiadiazol-2-yl)-4-(isopropylamino)pyridin-2-yl)pyrrolo[1,2-b]pyridazine-3-carbonitrile]?
Answer: IC50 (IRAK4 enzyme): 0.48 nM; EC50 (TNFα; [3]): 5 nM

Question: With `CC(C)Nc1cc(-c2ccc3cc(C#N)cnn23)ncc1-c1nnc(NCC(C)(C)O)s1` [Example 37, 7-(5-(5-((2-hydroxy-2-methylpropyl)amino)-1,3,4-thiadiazol-2-yl)-4-(isopropylamino)pyridin-2-yl)pyrrolo[1,2-b]pyridazine-3-carbonitrile] as the molecule, how does the IC50 (IRAK4 enzyme) read?
Answer: 1000 nM

Question: And the EC50 (TNFα; [3])?
Answer: 10000 nM
